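GI50 is the concentration that inhibits growth by half. The concentration for full growth arrest is given as TGI.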
Tests used:
Experiment in all cases: NCI anticancer screen, dose series, 384-well format
786-0 renal = tested on: 786-0 renal
A498 renal = tested on: A498 renal
A549 NSCLC = tested on: A549 NSCLC
ACHN renal = tested on: ACHN renal
BT-549 breast = tested on: BT-549 breast
CAKI-1 renal = tested on: CAKI-1 renal
CCRF-CEM leukemia = tested on: CCRF-CEM leukemia
COLO 205 colon = tested on: COLO 205 colon
DU-145 prostate = tested on: DU-145 prostate
EKVX NSCLC = tested on: EKVX NSCLC
HCT-116 colon = tested on: HCT-116 colon
HCT-15 colon = tested on: HCT-15 colon
HL-60(TB) leukemia = tested on: HL-60(TB) leukemia
HOP-62 NSCLC = tested on: HOP-62 NSCLC
HOP-92 NSCLC = tested on: HOP-92 NSCLC
HS 578T breast = tested on: HS 578T breast
HT29 colon = tested on: HT29 colon
IGROV1 ovarian = tested on: IGROV1 ovarian
K-562 leukemia = tested on: K-562 leukemia
KM12 colon = tested on: KM12 colon
LOX IMVI melanoma = tested on: LOX IMVI melanoma
M14 melanoma = tested on: M14 melanoma
MALME-3M melanoma = tested on: MALME-3M melanoma
MCF7 breast = tested on: MCF7 breast
MDA-MB-231 breast = tested on: MDA-MB-231 breast
MDA-MB-435 melanoma = tested on: MDA-MB-435 melanoma
MDA-MB-468 breast = tested on: MDA-MB-468 breast
MOLT-4 leukemia = tested on: MOLT-4 leukemia
NCI-H226 lung = tested on: NCI-H226 lung

Work on `NC(=O)c1ccc2nc(-c3ccc(Oc4ccc(Cl)cc4)cc3)[nH]c2c1` yielded a GI50 ([…]-0 renal) of 15 µM, a TGI (786-0 renal) of 37.1 µM and a GI50 (A498 renal) of 16.1 µM. For the same compound, the TGI (A498 renal) was 31.6 µM, the GI50 (A549 NSCLC) was 20.2 µM and the TGI (A549 NSCLC) was > 100 µM. For the same compound, the GI50 (ACHN renal) was 17.4 µM, the TGI (ACHN renal) was 45.1 µM and the GI50 (BT-549 breast) was 13.6 µM. For the same compound, the TGI (BT-549 breast) was 30.7 µM, the GI50 (CAKI-1 renal) was 25.1 µM and the TGI (CAKI-1 renal) was > 100 µM. It also gave a GI50 (CCRF-CEM leukemia) of 15.3 µM, a TGI (CCRF-CEM leukemia) of 29.7 µM and a GI50 (COLO 205 colon) of 33.8 µM. It also gave a TGI (COLO 205 colon) of 97.8 µM, a GI50 (DU-145 prostate) of 15 µM and a TGI (DU-145 prostate) of 36.9 µM. The GI50 (EKVX NSCLC) was 21.7 µM, the TGI (EKVX NSCLC) was 68.4 µM and the GI50 (HCT-116 colon) was 16.8 µM. It also gave a TGI (HCT-116 colon) of 40.8 µM, a GI50 (HCT-15 colon) of 16.9 µM and a TGI (HCT-15 colon) of 34.4 µM. It also gave a GI50 (HL-60(TB) leukemia) of 15 µM, a TGI (HL-60(TB) leukemia) of 28.4 µM and a GI50 (HOP-62 NSCLC) of 13.6 µM. For the same compound, the TGI (HOP-62 NSCLC) was 33.9 µM, the GI50 (HOP-92 NSCLC) was 20 µM and the TGI (HOP-92 NSCLC) was 80.3 µM. The GI50 (HS 578T breast) was 13.4 µM, the TGI (HS 578T breast) was 30.7 µM and the GI50 (HT29 colon) was 10.5 µM. The TGI (HT29 colon) was 24.1 µM, the GI50 (IGROV1 ovarian) was 17.1 µM and the TGI (IGROV1 ovarian) was 53.2 µM. The GI50 (K-562 leukemia) was 7.87 µM, the TGI (K-562 leukemia) was 23.4 µM and the GI50 (KM12 colon) was 14.5 µM. The TGI (KM12 colon) was 31.3 µM, the GI50 (LOX IMVI melanoma) was 26.2 µM and the TGI (LOX IMVI melanoma) was 60.7 µM. The GI50 (M14 melanoma) was 20.2 µM, the TGI (M14 melanoma) was 50.3 µM and the GI50 (MALME-3M melanoma) was 17.1 µM. It also gave a TGI (MALME-3M melanoma) of 46.2 µM, a GI50 (MCF7 breast) of 12.1 µM and a TGI (MCF7 breast) of 27.1 µM. It also gave a GI50 (MDA-MB-231 breast) of 21.5 µM, a TGI (MDA-MB-231 breast) of 46.1 µM and a GI50 (MDA-MB-435 melanoma) of 23.2 µM. For the same compound, the TGI (MDA-MB-435 melanoma) was 68 µM, the GI50 (MDA-MB-468 breast) was 13.7 µM and the TGI (MDA-MB-468 breast) was 34.5 µM. It also gave a GI50 (MOLT-4 leukemia) of 12.9 µM, a TGI (MOLT-4 leukemia) of 25.8 µM and a GI50 (NCI-H226 lung) of 22 µM. For the same compound, the TGI (NCI-H226 lung) was 78.1 µM.

— PubChem BioAssay (NCI)
